We go through ten compounds from US20090137681A1, “Sirtuin Inhibiting Compounds” (priority 2005, published 2009).

The structures appear in SMILES notation. “Also recorded” adds a separate entry of the source.

For one series, the target named is T1, yeast Sir2 (ySir2) (Saccharomyces cerevisiae, UniProt P06700).
T1 construct: His; made in house
Description: Yeast Sir2 deacetylase inhibition, HDAC fluorescent activity assay (BIOMOL AK-500). Conditions: for inhibition at 100 µM: 100 μM inhibitor, read-out: % inhibtn (100 μM) ySir2; for inhibition at 100 µM / IC50: 200 μM NAD+, 30° C., 60 min; for ySir2 inhibitory activity, in words: compared with sirtinol 1. The format is biochemical. How it is done: (§1) Recombinant His-tagged yeast ySir2 and His-tagged hSIRT1 were purified and assayed for deacetylase activity using the HDAC fluorescent activity assay/drug discovery kit (AK-500, BIOMOL Research Laboratories).^55 This assay system allows detection of a fluorescent signal upon deacetylation of a histone substrate when treated with developer. Fluorescence was measured on a fluorometric reader (Wallac Victor III fluorescence plate reader Perkin Elmer) with excitation set at 360 nm and emission detection set at 450 nm. Reactions consisted of either 3 μg of ySir2 or 1 μg of SIRT1, incubated with 250 μM acetylated histone substrate, 1 mM dithiothreitol, and a range of inhibitor concentrations as described. Reactions with the yeast and human proteins were carried out at 30 and 37° C., respectively, for 60 min. Assays were performed in the presence of 200 μM NAD^+ and each of the inhibitors at 0, 20, 75, 100, 150, or 300 μM concentrations.
as §1, with “In Vitro Yeast Sir2 Enzyme Inhibition. Recombinant” for “Recombinant”, “Sir2p was” for “ySir2 and His-tagged hSIRT1 were”, “Laboratories).^42” for “Laboratories).^55”, “of” for “of either”, “ySir2” for “ySir2 or 1 μg of SIRT1,”

The target in another series is T2, human SIRT1 (hSIRT1) (Homo sapiens, UniProt Q96EB6).
T2 construct: His; made in house
T2 sequence (Q96EB6 1-747): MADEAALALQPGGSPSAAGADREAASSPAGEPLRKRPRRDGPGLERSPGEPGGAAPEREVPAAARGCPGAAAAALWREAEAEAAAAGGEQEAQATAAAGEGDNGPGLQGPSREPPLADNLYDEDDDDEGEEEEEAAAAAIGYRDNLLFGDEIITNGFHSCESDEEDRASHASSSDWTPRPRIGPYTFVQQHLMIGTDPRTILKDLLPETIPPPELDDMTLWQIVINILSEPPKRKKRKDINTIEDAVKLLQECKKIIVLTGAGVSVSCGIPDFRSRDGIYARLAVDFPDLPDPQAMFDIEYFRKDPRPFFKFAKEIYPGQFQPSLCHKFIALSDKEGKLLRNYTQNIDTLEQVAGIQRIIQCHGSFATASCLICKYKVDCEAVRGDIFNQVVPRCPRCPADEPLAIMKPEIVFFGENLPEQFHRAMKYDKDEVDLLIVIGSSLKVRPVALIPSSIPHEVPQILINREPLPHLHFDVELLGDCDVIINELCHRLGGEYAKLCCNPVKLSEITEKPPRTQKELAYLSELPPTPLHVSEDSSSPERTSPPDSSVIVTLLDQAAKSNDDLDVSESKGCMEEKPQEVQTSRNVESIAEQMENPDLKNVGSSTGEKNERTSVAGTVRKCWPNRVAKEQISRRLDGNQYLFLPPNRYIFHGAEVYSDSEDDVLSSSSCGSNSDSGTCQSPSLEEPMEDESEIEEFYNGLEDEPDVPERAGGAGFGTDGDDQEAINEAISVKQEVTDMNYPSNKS
Briefly: Human SIRT1 deacetylase inhibition, HDAC fluorescent activity assay (BIOMOL AK-500). It is filed as biochemical. Conditions: for inhibition at 100 µM: 100 μM inhibitor, read-out: % inhibtn (100 μM) hSIRT1; for inhibition at 100 µM / IC50: 200 μM NAD+, 37° C., 60 min; for fold more potent than sirtinol (1) in inhibiting hSIRT1: relative to sirtinol 1. How it is done:
as §1

In a further series the target is T3, SIRT2 isoform 1 (Homo sapiens, UniProt Q8IXJ6).
T3 construct: His; made in house
T3 sequence (Q8IXJ6 1-389): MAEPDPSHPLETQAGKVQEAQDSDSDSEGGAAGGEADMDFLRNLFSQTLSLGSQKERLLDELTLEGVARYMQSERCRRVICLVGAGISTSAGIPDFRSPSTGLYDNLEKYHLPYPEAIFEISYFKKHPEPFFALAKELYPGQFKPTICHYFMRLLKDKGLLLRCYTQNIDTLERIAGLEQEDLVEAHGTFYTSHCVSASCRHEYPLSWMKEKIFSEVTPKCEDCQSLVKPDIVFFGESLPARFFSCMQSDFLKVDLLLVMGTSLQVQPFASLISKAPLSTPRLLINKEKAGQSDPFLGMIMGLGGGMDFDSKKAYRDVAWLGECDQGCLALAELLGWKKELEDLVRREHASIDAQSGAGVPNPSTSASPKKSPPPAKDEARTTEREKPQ
Description: SIRT2 deacetylase inhibition, HDAC fluorescent activity assay (BIOMOL AK-500). It is filed as biochemical. The following applies: for inhibition at 100 µM: read-out: SIRT2 % inhibition at 100 μM, 100 μM compound; for IC50: dose response curve; for fold more potent than 1 in inhibiting SIRT2: relative to sirtinol 1. How it is done: as §1
Recombinant His-tagged SIRT2 isoform 1 was purified and assayed for deacetylase activity using the HDAC fluorescent activity assay/drug discovery kit (AK-500, BIOMOL Research Laboratories) as described above. […] A dose response curve for determining the IC50 was also done.

The test system of series [1] is Sir2-mediated telomeric URA3 gene silencing. Briefly: Telomeric silencing assay (phenotypic screening, URA3 reporter, 5-FOA). It is filed as cell-based, yeast. The following applies: relative to sirtinol 1, plates with 5-FOA, densitometric scanning at 16.7 μM. The procedure: Wildtype (AYH2.45)^50 and sir2Δ (STY30)^50 strains were grown to exponential phase (0.5 OD/mL) in YPD medium and cells were spotted in 10-fold dilutions on SC medium containing 1 mg/mL 5-fluoroorotic acid (5-FOA).^51 When appropriate, cells were grown on plates containing 0.18% DMSO and the specified concentration of Sir2 inhibitor (5.6 and 16.7 μM). Cell growth was evaluated after 3-4 d at 30° C.
The yeast strain contained a URA3 reporter gene integrated into the sub-telomeric region of chromosome VII-L where it is silenced by Sir2.^50 In the presence of 5-fluoroorotic acid (5-FOA), loss of transcriptional silencing in this strain and the corresponding increase in URA3 expression is lethal (FIG. 2).^51
A semi-quantitative assay of the spots on the plates treated with 5-FOA and the Sir2 inhibitors at 16.7 μM concentration was performed by densitometric scanning of the plates.

T1 sequence (P06700 whole entry): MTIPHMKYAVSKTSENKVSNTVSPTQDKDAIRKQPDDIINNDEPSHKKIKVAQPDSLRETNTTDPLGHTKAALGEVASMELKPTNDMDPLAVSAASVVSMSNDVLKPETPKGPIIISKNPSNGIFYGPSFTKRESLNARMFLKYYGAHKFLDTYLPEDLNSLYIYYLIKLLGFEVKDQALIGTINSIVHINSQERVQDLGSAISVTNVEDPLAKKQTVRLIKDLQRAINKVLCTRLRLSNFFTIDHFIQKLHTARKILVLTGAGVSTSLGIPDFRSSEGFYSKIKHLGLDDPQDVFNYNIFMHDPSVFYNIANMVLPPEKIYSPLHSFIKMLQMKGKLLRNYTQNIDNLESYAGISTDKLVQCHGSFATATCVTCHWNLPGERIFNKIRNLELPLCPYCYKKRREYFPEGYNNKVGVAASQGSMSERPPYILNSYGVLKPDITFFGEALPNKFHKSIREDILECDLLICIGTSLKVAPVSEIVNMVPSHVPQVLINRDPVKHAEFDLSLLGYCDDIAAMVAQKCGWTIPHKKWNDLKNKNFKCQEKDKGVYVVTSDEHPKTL

For `C[C@@H](NC(=O)c1ccccc1/N=C/c1c(O)ccc2ccccc12)c1ccccc1` [Compound 9, (R)-sirtinol], the inhibition at 100 µM came to 55.5% at yeast Sir2 (ySir2), 61.8% at human SIRT1 (hSIRT1) and 72.2% on SIRT2 isoform 1. Further, the “ySir2 inhibitory activity, in words” value on yeast Sir2 (ySir2) is recorded as “IC50 values similar to that of sirtinol 1”.
For `CC(NC(=O)c1ccc(/N=C/c2c(O)ccc3ccccc23)cc1)c1ccccc1` (stereo not shown) [Compound 8, 4-[(2-hydroxy-1-naphthalenylmethylene)amino]-N-(1-phenylethyl)benzamide], at yeast Sir2 (ySir2), the inhibition at 100 µM stood at 59.8%; the concentration for half-maximal inhibition (IC50) was 33 ± 1 µM; the “ySir2 inhibitory activity, in words” value is given as “IC50 values similar to that of 1; also recorded: IC50 values similar to those of 1”. In addition, on yeast Sir2 (ySir2) (relative to sirtinol 1), the “fold more potent than sirtinol (1) in inhibiting ySir2” value is reported as 1.5 fold. Besides, on human SIRT1 (hSIRT1), the inhibition at 100 µM came out at 82.6%, inhibition was half-maximal at 13 µM (IC50) and the “fold more potent than sirtinol (1) in inhibiting hSIRT1” value was determined as 10 fold. Moreover, at human SIRT1 (hSIRT1) (listed as para-sirtinol), the “fold more potent than sirtinol (1) in inhibiting hSIRT1” value came out at 8 fold. Moreover, the “SIRT2 inhibitory potency, in words” value at SIRT2 isoform 1 (among compounds 1, 7-10) is reported as “most potent”. At SIRT2 isoform 1, the IC50 was determined as 25.9 µM, the inhibition at 100 µM was 80.2% and the “fold more potent than 1 in inhibiting SIRT2” value is 2.2 fold. For the same compound, in series [1] (listed as para-sirtinol), the “Sir2 inhibitory potency in phenotypic screening, in words” value (“Sir2 inhibitory potency” below) was “more potent Sir2 inhibitory activity than sirtinol”.
In turn, `NC(=O)c1ccccc1/N=C/c1c(O)ccc2ccccc12` [Compound 5] had a melting point of 238 to 240 °C. Further, on yeast Sir2 (ySir2), the inhibition at 100 µM was 0 to 5% and the “ySir2 inhibitory activity, in words” value was “totally inactive; also recorded: total loss of Sir2 inhibitory activity”. Moreover, at human SIRT1 (hSIRT1), the “hSIRT1 inhibitory activity, in words” value is “totally inactive” and the inhibition at 100 µM lay in the range of 0 to 5%.
Regarding `CC(NC(=O)c1cccc(/N=C/c2c(O)ccc3ccccc23)c1)c1ccccc1` (stereo not shown) [Compound 7, 3-[(2-hydroxy-1-naphthalenylmethylene)amino]-N-(1-phenylethyl)benzamide], at yeast Sir2 (ySir2), the inhibition at 100 µM turned out to be 53.9%; it took 72 ± 3 µM to reach half-maximal inhibition (IC50); the “ySir2 inhibitory activity, in words” value is on record as “IC50 values similar to that of 1; also recorded: IC50 values similar to those of 1”. The “fold less potent than sirtinol (1) in inhibiting ySir2” value at yeast Sir2 (ySir2) (relative to sirtinol 1) worked out at 1.5 fold. Further, at human SIRT1 (hSIRT1), the inhibition at 100 µM is 63%, the IC50 came to 59 ± 2 µM and the “fold more potent than sirtinol (1) in inhibiting hSIRT1” value is given as 2.2 fold. The “fold more potent than sirtinol (1) in inhibiting hSIRT1” value on human SIRT1 (hSIRT1) (listed as meta-sirtinol) was found to be 2 fold. For the same compound, on SIRT2 isoform 1, it took 35.7 µM to reach half-maximal inhibition (IC50), the inhibition at 100 µM was determined as 79.2% and the “fold more potent than 1 in inhibiting SIRT2” value came to 1.6 fold. Besides, the “Sir2 inhibitory potency” value in series [1] is given as “more potent inhibitors than 1; also recorded: more potent than sirtinol; also recorded: same potent Sir2 inhibitory as 1”. Also, the “Sir2 inhibitory potency” value in series [1] (listed as meta-sirtinol) is recorded as “more potent Sir2 inhibitory activity than sirtinol”.
`C[C@H](NC(=O)c1ccccc1/N=C/c1c(O)ccc2ccccc12)c1ccccc1` [Compound 10, (S)-2-[(2-hydroxy-1-naphthalenylmethylene)amino]-N-(1-phenylethyl)benzamide]: the inhibition at 100 µM stood at 57% on yeast Sir2 (ySir2), 60.2% on human SIRT1 (hSIRT1) and 73.5% at SIRT2 isoform 1. On yeast Sir2 (ySir2), the “ySir2 inhibitory activity, in words” value is recorded as “IC50 values similar to that of sirtinol 1”.
In the case of `O=C(O)c1ccccc1/N=C/c1c(O)ccc2ccccc12` [Compound 4], the melting point lay within 180 to 182 °C. Moreover, at yeast Sir2 (ySir2), the inhibition at 100 µM was 5%. In addition, the inhibition at 100 µM at human SIRT1 (hSIRT1) came to 26%.
Take `CC(NC(=O)c1ccccc1/N=C/c1c(O)ccc2ccccc12)c1ccccc1` (racemic) [Compound 1, sirtinol, reference compound]: the inhibition at 100 µM was found to be 65.6% on yeast Sir2 (ySir2), 44.5% at human SIRT1 (hSIRT1) and 71% at SIRT2 isoform 1.
`CC(NC(=O)c1ccccc1/N=C/c1cccc2ccccc12)c1ccccc1` (stereo not shown) [Compound 2, 2-[(1-naphthalenylmethylene)amino]-N-(1-phenylethyl)benzamide] had a melting point of 101 to 103 °C. Also, the inhibition at 100 µM at yeast Sir2 (ySir2) was 10%. Further, at human SIRT1 (hSIRT1), the inhibition at 100 µM was found to be 33%.
Take `CCOC(=O)c1ccccc1/N=C/c1c(O)ccc2ccccc12` [Compound 3]: the inhibition at 100 µM on yeast Sir2 (ySir2) was 20%; at human SIRT1 (hSIRT1), 9%. In addition, the “fold less potent than sirtinol (1) in inhibiting ySir2” value at yeast Sir2 (ySir2) (relative to sirtinol 1) is given as 3 fold.
Take `N#Cc1ccccc1/N=C/c1c(O)ccc2ccccc12` [Compound 6]: the melting point fell in the range of 139 to 141 °C. On yeast Sir2 (ySir2), the inhibition at 100 µM was found to be 15%. In addition, the “fold less potent than sirtinol (1) in inhibiting ySir2” value on yeast Sir2 (ySir2) (relative to sirtinol 1) is 4 fold. Also, the inhibition at 100 µM at human SIRT1 (hSIRT1) came to 20%.

The term IC50 denotes the midpoint of a concentration-inhibition curve. Low values mean greater potency, high ones weaker potency. A word on the melting point: it is the temperature of the solid-liquid transition.
